Measurements as given in the NIST ThermoML archive (doi:10.1021/je400415r).
Numbers after ± are expanded uncertainties.

Experiment: mn = molality of the nth substance listed, in mol/kg
Conditions: 101 kPa, Liquid; for speed of sound: Pulse-echo method; for mass density: Vibrating tube method

CCCC(N)C(=O)O (stereo not drawn) [DL-2-aminopentanoic acid] + O
Conditions	mass density, 288.15 K [kg/m3]	mass density, 298.15 K [kg/m3]	mass density, 308.15 K [kg/m3]	mass density, 318.15 K [kg/m3]	speed of sound, 288.15 K [m/s]	speed of sound, 298.15 K [m/s]	speed of sound, 308.15 K [m/s]	speed of sound, 318.15 K [m/s]
m1 = 0.04497	1000.31 ± 0.041	998.222 ± 0.043	995.183 ± 0.045	991.346 ± 0.048	1471.3 ± 0.78	1501.2 ± 0.78	1523.8 ± 0.77	1540 ± 0.77
m1 = 0.05999	1000.71 ± 0.041	998.611 ± 0.042	995.564 ± 0.045	991.721 ± 0.048	1473 ± 0.78	1502.7 ± 0.78	1525.1 ± 0.77	1541.2 ± 0.77
m1 = 0.07998	1001.24 ± 0.042	999.126 ± 0.042	996.069 ± 0.045	992.218 ± 0.048	1475.1 ± 0.78	1504.6 ± 0.78	1526.9 ± 0.77	1542.8 ± 0.77
m1 = 0.09499	1001.63 ± 0.042	999.511 ± 0.042	996.447 ± 0.045	992.59 ± 0.047	1476.7 ± 0.78	1506.1 ± 0.78	1528.2 ± 0.77	1544 ± 0.77
m1 = 0.11	1002.03 ± 0.042	999.895 ± 0.042	996.823 ± 0.045	992.961 ± 0.047	1478.3 ± 0.78	1507.5 ± 0.78	1529.6 ± 0.77	1545.2 ± 0.77
m1 = 0.125	1002.42 ± 0.042	1000.28 ± 0.042	997.197 ± 0.045	993.329 ± 0.047	1479.9 ± 0.78	1509 ± 0.78	1530.9 ± 0.77	1546.4 ± 0.77
m1 = 0.14	1002.81 ± 0.043	1000.66 ± 0.042	997.57 ± 0.044	993.697 ± 0.047	1481.5 ± 0.78	1510.4 ± 0.78	1532.2 ± 0.77	1547.6 ± 0.77
m1 = 0.155	1003.2 ± 0.043	1001.04 ± 0.042	997.943 ± 0.044	994.064 ± 0.047	1483.1 ± 0.78	1511.9 ± 0.78	1533.5 ± 0.77	1548.8 ± 0.77
m1 = 0.17	1003.59 ± 0.043	1001.42 ± 0.043	998.314 ± 0.044	994.429 ± 0.047	1484.6 ± 0.78	1513.3 ± 0.78	1534.8 ± 0.77	1550 ± 0.77
m1 = 0.185	1003.98 ± 0.043	1001.79 ± 0.043	998.684 ± 0.044	994.793 ± 0.047	1486.2 ± 0.78	1514.7 ± 0.78	1536.2 ± 0.77	1551.2 ± 0.77
m1 = 0.2	1004.36 ± 0.044	1002.17 ± 0.043	999.053 ± 0.044	995.156 ± 0.047	1487.8 ± 0.78	1516.1 ± 0.78	1537.5 ± 0.77	1552.4 ± 0.77

CC(N)C(=O)O (stereo not drawn) [DL-2-aminopropanoic acid] + O
Conditions	mass density, 288.15 K [kg/m3]	mass density, 298.15 K [kg/m3]	mass density, 308.15 K [kg/m3]	mass density, 318.15 K [kg/m3]	speed of sound, 288.15 K [m/s]	speed of sound, 298.15 K [m/s]	speed of sound, 308.15 K [m/s]	speed of sound, 318.15 K [m/s]
m1 = 0.04994	1000.59 ± 0.041	998.501 ± 0.043	995.455 ± 0.045	991.617 ± 0.048	1469.9 ± 0.78	1500 ± 0.78	1522.8 ± 0.77	1539.1 ± 0.77
m1 = 0.1499	1003.53 ± 0.043	1001.37 ± 0.043	998.271 ± 0.044	994.396 ± 0.047	1476.9 ± 0.79	1506.5 ± 0.78	1528.8 ± 0.77	1544.8 ± 0.77
m1 = 0.2597	1006.7 ± 0.045	1004.46 ± 0.044	1001.3 ± 0.044	997.395 ± 0.046	1484.5 ± 0.79	1513.5 ± 0.78	1535.4 ± 0.77	1551 ± 0.77
m1 = 0.4797	1012.86 ± 0.048	1010.48 ± 0.048	1007.21 ± 0.047	1003.23 ± 0.046	1499.3 ± 0.79	1527.4 ± 0.79	1548.3 ± 0.78	1563.2 ± 0.78
m1 = 0.6994	1018.78 ± 0.052	1016.26 ± 0.051	1012.89 ± 0.051	1008.84 ± 0.05	1513.8 ± 0.79	1540.8 ± 0.79	1560.9 ± 0.78	1575 ± 0.78
m1 = 0.9199	1024.51 ± 0.055	1021.85 ± 0.055	1018.39 ± 0.054	1014.26 ± 0.053	1528 ± 0.8	1553.9 ± 0.79	1573.2 ± 0.79	1586.5 ± 0.79
m1 = 1.138	1029.97 ± 0.059	1027.2 ± 0.058	1023.64 ± 0.057	1019.43 ± 0.056	1541.7 ± 0.8	1566.6 ± 0.8	1585 ± 0.79	1597.7 ± 0.79
m1 = 1.36	1035.33 ± 0.063	1032.43 ± 0.062	1028.77 ± 0.061	1024.51 ± 0.06	1555.1 ± 0.8	1579.1 ± 0.8	1596.7 ± 0.8	1608.7 ± 0.8
m1 = 1.577	1040.37 ± 0.066	1037.36 ± 0.065	1033.63 ± 0.064	1029.29 ± 0.063	1568 ± 0.81	1591 ± 0.81	1607.8 ± 0.8	1619.2 ± 0.8
m1 = 1.799	1045.37 ± 0.07	1042.26 ± 0.069	1038.42 ± 0.068	1034.03 ± 0.066	1580.7 ± 0.81	1602.7 ± 0.81	1618.9 ± 0.81	1629.5 ± 0.81
